Reference: patent publication US12617757B2, “Compounds and modules for inhibition of pre-miR-21 and their use in treatment of certain cancers” (University of Florida Research Foundation, Incorporated, priority 2019, dated 2026)
pKd: −log10 of the molar value. Like-named read-outs stand apart in the source and are kept apart here.

Tests used:
pre-miR-21 WT RNA [1] = test: In vitro Dicer processing of pre-miR-21 WT; format: biochemical
Excerpt: (§1) In vitro Dicer processing. […] Cleavage products were resolved on a denaturing 15% polyacrylamide gel, which was imaged using a Molecular Dynamics Typhoon phosphorimager and quantified with Bio-Rad's QuantityOne software, normalizing to full length RNA.

pre-miR-21 BP = test: MST binding to pre-miR-21 BP (base paired control); details: addition of 100 μM of compound
Protocol: (§2) Microscale Thermophoresis (MST) Binding Measurements. MST fluorescent measurements were performed on a Monolith NT.115 system (NanoTemper Technologies) using the fluorescence of a miR-21 hairpin (A+U Bulge): (5′ Cy5-[…]-3′) (SEQ ID NO: 1) or a miR-21 base paired control (5′ Cy5-[…]-3′) (SEQ ID NO: 2) which were purchased from IDT with RNase-free HPLC purification and used without further purification. The RNA (5 nM) was diluted in 1×MST Buffer (8 mM Na2HPO4, 190 mM NaCl, 1 mM EDTA, and 0.05% (v/v) Tween-20) and folded by heating at 60° C. for 5 min, and slowly cooling to room temperature. Compounds 1 and 2 were diluted in 1×MST Buffer, followed by 1:3 dilutions in 1×MST Buffer containing 5 nM RNA. […] Fluorescence measurements (Ex: 605-645 nm, Em: 680-685 nm) were performed at 10% LED and 80% MST power, with a Laser-On time of 30 s and Laser-Off time of 5 s. The data were analyzed by thermophoresis analysis and fitted by the quadratic binding equation in MST analysis software (NanoTemper Technologies). Dissociation constants were then determined by curve fitting using a single-site model. Normalized MST signal was calculated by normalizing the fluorescent signals using the MST data of 1 binding to pre-miR-21 WT with the lowest signal as 0 and the highest fluorescent signal as 1.

pre-miR-21 [2] = test: RT-qPCR of mature miR-21 and pre-miR-21 levels in MDA-MB-231 cells; format: cell-based, human; details: for effect on mature miR-21 levels / effect on pre-miR-21 levels: MDA-MB-231, RT-qPCR
Protocol: Cell culture compound treatment and transfection. For treatment with compounds, stocks in DMSO or water were diluted in growth media and added to cells for 24-72 h. For transfection of plasmid DNA to overexpress the miR-21 hairpin precursor in pcDNA3.1 (Addgene 21114) or pcDNA3-RNaseL (R. H. Silverman, Cleveland Clinic^24) in 24-well plates, Lipofectamine 2000 was used according to the manufacturer's protocol. After transfection, the medium was removed and replaced with growth medium containing compound prepared as described above. For transfection of a control (Santa Cruz Biotechnology: sc-37007) or RNase L targeting siRNA (Santa Cruz Biotechnology: sc-45965), Lipofectamine RNAiMAX Reagent was used for transfection of oligonucleotides, including 2′-5′ A4, according to the manufacturer's protocol.

pre-miR-21 BP RNA = test: In vitro Dicer processing of pre-miR-21 BP; format: biochemical
Excerpt: as §1

pre-miR-21 [3] = test: Cellular Chem-CLIP / C-Chem-CLIP in MDA-MB-231 cells; format: cell-based, human; details: for enrichment of the pre-miR-21 transcript by Chem-CLIP: MDA-MB-231, RT-qPCR
Protocol: Cellular Chem-CLIP/C-Chem-CLIP. The MDA-MB-231 cells were grown to ˜70% confluency as monolayers in 60 mm dishes. The cells were treated with Chem-CLIP compounds (8 or 9) and/or non-cross-linking competitors (1 or 2) for 48 h. Total RNA was extracted using a Quick-RNA MiniPrep Kit (Zymo Research) per the manufacturer's protocol. Approximately 20-30 μg of total RNA was then incubated with 100 μL of streptavidin-agarose beads (Sigma-Aldrich) and shaken for 1 h at room temperature. The solution was removed beads washed six times with 1×PBS. The RNA bound to beads was released, purified, and used for RT-qPCR as previously described^23. Relative fold enrichment of the measured RNA before and after pulldown was measured using equation 3 (Eq. 3): Relative Fold Enrichment=2^−(ΔC^t^before pulldown−ΔC^t^after pulldown) (Eq. 3)
where “ΔCt before pulldown” is the difference between the Ct values for the RNA of interest and a housekeeping gene in total RNA from cells and “ΔCt after pulldown” is the difference between the Ct values for the RNA of interest and the same housekeeping gene in RNA after pulldown.

pre-miR-21 WT = test: Microscale thermophoresis (MST) binding to pre-miR-21 WT; details: read-out: Kd, binding of the pre-miR-21 RNA Dicer site
Protocol: as §2

pre-miR-21 WT RNA [4] = test: In vitro Chem-CLIP pulldown; format: binding
Protocol: In vitro Chemical Cross-linking and Isolation by Pull Down (Chem-CLIP) and Competitive Chemical Cross-linking and Isolation by Pull Down (C-Chem-CLIP). RPMI growth medium was heat inactivated at 95° C. for 15 min and then cooled to room temperature. Approximately 10,000 counts of ^32P 5′-end labeled miR-21 precursor hairpin RNA (pre-miR-21 WT) was folded in growth medium at 95° C. for 1 min. After cooling to room temperature, dilutions of Chem-CLIP probes 8 or 9^23 were added and incubated at 37° C. for 18 h. Alternatively, for C-Chem-CLIP, dilutions of competing non-cross-linking parent compounds, 1 or 2, were incubated with RNA for 1 h before addition of Chem-CLIP probe compounds. Streptavidin-agarose beads (Sigma-Aldrich) were then used to pulldown RNA. Samples were then washed with 1×PBS supplemented with 0.1% (v/v) Tween-20 and bound and unbound RNA radioactivity measured using a Beckman Coulter LS6500 Liquid Scintillation Counter as previously described^23.

pri-miR-21 RNA = test: In vitro Ribo-SNAP; format: biochemical; details: dose responsive treatment
Protocol: In vitro Ribo-SNAP. The pri-miR-21 RNA (1 μM) was folded as described above. Dilutions of cleaver compounds (Bleomycin A5 or 10) were pre-activated by the addition of 1 eq Fe^2+ and added to the folded RNA in a total volume of 20 μL. After 30 min and 60 min, an additional equivalent of Fe^2+ was added and then the reaction mixtures were incubated at 37° C. overnight. After ethanol precipitation and quantification by Nanodrop, reverse transcription was performed using SuperScript™ III Reverse Transcriptase (ThermoFisher Scientific) per the manufacturer's protocol using a 5′ ^32P-labeled forward primer (˜10,000 counts). The A, T, G and C sequencing ladders were generated by using a ratio of ddNTP/dNTP of 3:1. The RNA was digested by the addition of RNase A and RNase H and incubated at 37° C. for 30 min. Then, an equal volume of Loading Buffer (95% […], 50 mM EDTA, 0.05% (w/v) bromophenol blue, 0.05% (w/v) xylene cyanol) was added to each reaction. The final mixture was resolved on a denaturing 15% polyacrylamide gel.

pri-miR-21 = test: Ribo-SNAP-Map in MDA-MB-231 cells; format: cell-based, human
Protocol: Ribo-SNAP-Map. The MDA-MB-231 cells were grown in 100 mm dishes to ˜70% confluency and treated with cleaving compound (10) for 6 h. Total RNA was then extracted by treatment with TRIzol (ThermoFisher Scientific) and quantified by Nanodrop. Approximately 10 μg of total RNA was used for reverse transcription with a pri-miR-21 specific primer (5′-[…]-3′; 2 pmol) (SEQ ID NO: 12) using Superscript III (SSIII; Life Technologies). Approximately of 10 μg RNA with 2 pmol of gene-specific primer and 1 μL 10 mM dNTP Mix in a total volume of 13 μL was incubated at 65° C. for 5 min and then placed in ice for 5 min. Next, 4 μL 5×First-Strand Buffer, 1 μL 0.1 M DTT, 1 μL RNaseOUT and 1 μL SuperScript™ III RT were added and the mixture was incubated at 50° C. for 1 h, followed by 85° C. for 10 min. After digestion with RNase A and RNase H, the remaining cDNA was purified using RNAClean XP beads (Beckman Coulter; 1.8 volumes of beads and 3 volumes of isopropanol).
The purified cDNA was ligated with a 3′ adapter (5′ Phosphate NNN-[…]-3′ Biotin) (SEQ ID NO: 13) by T4 RNA ligase 1 (New England BioLabs; NEB) following the manufacturer's recommended protocol (2 μL 10×T4 RNA ligase buffer, 1 μL of 1 mM ATP, 10 μL 50% PEG 8000, 5 μL cDNA, 1 μL of 20 μM ssDNA adaptor, and 1 μL of T4 RNA ligase). Then, the cDNA ligated to the adaptor was purified with RNAClean XP beads as described above. PCR amplification was performed with the ligated cDNA by using Phusion polymerase (NEB) with cycling conditions of 98° C. for 20 s, 64° C. for 20 s and 72° C. for 90 s and the following forward (5′-[…]-3′) (SEQ ID NO: 14) and reverse (5′-[…]-3′) (SEQ ID NO: 15) primers. The PCR products were separated on a denaturing 15% polyacrylamide gel and the target band was excised from the gel and ethanol precipitated. The purified DNA was ligated into a vector using NEB's PCR Cloning Kit per the manufacturer's protocol. Antibiotic-resistant colonies were selected and subjected to Sanger sequencing by Genewiz. The cleavage sites and percentage were determined by comparing the cleaver treated samples and non-treated samples.

pre-miR-210 = test: RT-qPCR of pre-miR-210 and miR-210 in hypoxic MDA-MB-231 cells; format: cell-based, human; details: hypoxic MDA-MB-231, RT-qPCR

Structure (SMILES): CN1CCN(c2ccc(-c3ccc4[nH]c(-c5ccc(OCCCC(=O)NCCCN=[N+]=[N-])cc5)nc4c3)cc2)CC1 [Compound 1]
- inhibition of / protection from Dicer processing (pre-miR-21 WT RNA [1]): Protection with compound is observed at U23 (boxes marked with arrows) and U26 and U27
- inhibition of / protection from Dicer processing (pre-miR-21 WT RNA [1]; listed as Formula 1): inhibited in vitro Dicer processing
- saturation of the binding isotherm (pre-miR-21 BP): No saturation of the binding isotherm was observed
- increase of pre-miR-21 levels (pre-miR-21 [2]; 10 μM, MDA-MB-231): 1.3 fold
- inhibition of miR-21 production (pre-miR-21 [2]; 10 μM, MDA-MB-231): 50%
- effect on mature miR-21 levels (pre-miR-21 [2]): inhibits mature miR-21-5p biogenesis
- effect on pre-miR-21 levels (pre-miR-21 [2]): boosts levels of pre-miR-21
- protection from Dicer processing (pre-miR-21 BP RNA): Protection with compound is observed at U26 and U27
- competition of Chem-CLIP enrichment (C-Chem-CLIP) (pre-miR-21 [3]; MDA-MB-231, versus probe 8): enrichment is depleted
- pKd (pre-miR-21 WT): 4.70

Structure (SMILES): C#CCN(CC(=O)N(CCC)CC(=O)N(CCC)CC(=O)N(CCC)CC(=O)N(CC#C)CC(=O)NCCOCCOCCOCCOc1ccc(C=C2SC(Nc3ccccc3)=C(C(=O)OCC)C2=O)cc1O)C(C)=O [Compound 6]
- effect on mature miR-21 levels (pre-miR-21 [2]): inactive

Structure (SMILES): CCCN(CC(=O)N(CCC)CC(=O)N(CCC)CC(=O)N(CC(=O)NCCOCCOCCOCCOc1cc(C=C2SC(Nc3ccccc3)=C(C(=O)OCC)C2=O)ccc1O)Cc1cn(CCCNC(=O)CCCOc2ccc(-c3nc4cc(-c5ccc(N6CCN(C)CC6)cc5)ccc4[nH]3)cc2)nn1)C(=O)CN(Cc1cn(CCCNC(=O)CCCOc2ccc(-c3nc4cc(-c5ccc(N6CCN(C)CC6)cc5)ccc4[nH]3)cc2)nn1)C(C)=O [Compound 7]
- effect on mature miR-21 levels (pre-miR-21 [2]): decreased miR-21 levels
- effect on pre-miR-21 levels (pre-miR-21 [2]): increased pre-miR-21 levels
- effect on mature miR-21 levels (pre-miR-21 [2]; listed as Formula 7): did not have enhanced activity over Formula 2

Structure (SMILES): CC(=O)N(CCNC(=O)CCCc1ccc(N(CCCl)CCCl)cc1)CC(=O)N(CC(=O)N(CCNC(=O)CCCCC1SCC2NC(=O)NC21)CC(N)=O)Cc1cn(CCCNC(=O)CCCOc2ccc(-c3nc4cc(-c5ccc(N6CCN(C)CC6)cc5)ccc4[nH]3)cc2)nn1 (stereo not drawn) [Compound 8]
- enrichment of pre-miR-21 by Chem-CLIP pulldown (pre-miR-21 [3]; 10 μM, MDA-MB-231): ~2.5 fold
- enrichment of the pre-miR-21 transcript by Chem-CLIP (pre-miR-21 [3]; 10 μM): enrichment for the pre-miR-21 transcript
- pulldown of 32P 5′-end labeled pre-miR-21 WT RNA (pre-miR-21 WT RNA [4]): greater enrichment of the RNA compared to 9

Structure (SMILES): C#CCN(CC(=O)N(CCNC(=O)CCCCC1SCC2NC(=O)NC21)CC(N)=O)C(=O)CN(CCNC(=O)CCCc1ccc(N(CCCl)CCCl)cc1)C(C)=O (stereo not drawn) [Compound 9, reference compound]
- enrichment of the pre-miR-21 transcript by Chem-CLIP (pre-miR-21 [3]; 10 μM): no enrichment

Structure (SMILES): CCCN(CC(=O)N(CCC)CC(=O)N(CCC)CC(=O)N(CC(=O)NCCCCNCCCNC(=O)c1csc(-c2csc(CCNC(=O)C(NC(=O)C(C)[C@H](O)C(C)NC(=O)C(NC(=O)c3nc(C(CC(N)=O)NC[C@H](N)C(N)=O)nc(N)c3C)[C@@H](OC3OC(CO)C(O)C(O)C3OC3OC(CO)C(O)C(OC(N)=O)C3O)c3c[nH]cn3)C(C)O)n2)n1)Cc1cn(CCCNC(=O)CCCOc2ccc(-c3nc4cc(-c5ccc(N6CCN(C)CC6)cc5)ccc4[nH]3)cc2)nn1)C(=O)CN(Cc1cn(CCCNC(=O)CCCOc2ccc(-c3nc4cc(-c5ccc(N6CCN(C)CC6)cc5)ccc4[nH]3)cc2)nn1)C(C)=O (stereo partly drawn) [Compound 10]
- RT stops induced in pri-miR-21 (pri-miR-21 RNA): induced an RT stop at the indicated sites
- reads that stop at the second A (3′) (pri-miR-21; 3/21 reads): 14%
- reads that stop at the third A (3′) (pri-miR-21; 6/21 reads): 29%
- reads that stop at the first C (5′) (pri-miR-21; 12/21 reads): 57%
- effect on mature miR-21 levels (pre-miR-21 [2]): decreases mature miR-21 levels
- effect on pre-miR-21 levels (pre-miR-21 [2]): cleaved and decreased pre-miR-21 levels

Structure (SMILES): CCOC(=O)C1=C(Nc2ccccc2)SC(=Cc2ccc(OCCOCCOCCOCCNC(=O)CCCOc3cccc(-c4nc5ccc(-c6nc7cc(N8CCN(C)CC8)ccc7[nH]6)cc5[nH]4)c3)c(O)c2)C1=O [Compound 25]
- effect on pre-miR-210 (pre-miR-210): Cleavage of pre-miR-210

Structure (SMILES): CN1CCN(c2ccc3nc(-c4ccc5nc(-c6cccc(OCCCC(=O)NCCCN=[N+]=[N-])c6)[nH]c5c4)[nH]c3c2)CC1 [Compound 26]
- effect on mature miR-210 levels (pre-miR-210): inhibits mature miR-210 levels
- effect on pre-miR-210 (pre-miR-210): boosts levels of pre-miR-21
